Drawing on patent publication US7723329B2, “Substituted-3-sulfonylindazole derivatives as 5-hydroxytryptamine-6 ligands” (Wyeth LLC, priority 2005, dated 2010), this text covers Ki for 38 molecules.

This assay addresses T1, human cloned 5-HT6 receptors (Homo sapiens, UniProt P50406).
T1 construct: expressed in transfected cells; host or cells: HeLa cells
In words: 5-HT6 binding affinity, [3H]-LSD displacement. The following applies: membranes of Hela cells expressing human cloned 5-HT6 receptors; [3H]-LSD 3.0 nM; 120 minutes at room temperature. On the procedure:
The affinity of test compounds for the serotonin 5-HT6 receptor was evaluated in the following manner. Cultured Hela cells expressing human cloned 5-HT6 receptors were harvested and centrifuged at low speed (1,000×g) for 10.0 minutes to remove the culture media. The harvested cells were suspended in half volume of fresh physiological phosphate buffered saline solution and recentrifuged at the same speed. This operation was repeated. The collected cells were then homogenized in ten volumes of 50 mM Tris.HCl (pH 7.4) and 0.5 mM EDTA. The homogenate was centrifuged at 40,000×g for 30.0 min and the precipitate was collected. The obtained pellet was resuspended in 10 volumes of Tris.HCl buffer and recentrifuged at the same speed. The final pellet was suspended in a small volume of Tris.HCl buffer and the tissue protein content was determined in aliquots of 10-25 μl volumes. […] The volume of the suspended cell membranes was adjusted to give a tissue protein concentration of 1.0 mg/ml of suspension. The prepared membrane suspension (10 times concentrated) was aliquoted in 1.0 ml volumes and stored at −70° C. until used in subsequent binding experiments.
The bound complex caught on the filter disk was allowed to air dry and the radioactivity is measured in a Packard TopCount® equipped with six photomultiplier detectors, after the addition of 40.0 μl Microscint®-20 scintillant to each shallow well. The unifilter plate was heat-sealed and counted in a PackardTopCount® with a tritium efficiency of 31.0%.
Specific binding to the 5-HT6 receptor was defined as the total radioactivity bound less the amount bound in the presence of 10.0 μM unlabeled methiothepin. Binding in the presence of varying concentrations of test compound was expressed as a percentage of specific binding in the absence of test compound. The results were plotted as log % bound versus log concentration of test compound. […] A linear regression line of data points was plotted, from which the IC50 value is determined and the Ki value is determined based upon the following equation: Ki=IC50/(1+L/KD) where L was the concentration of the radioactive ligand used and KD is the dissociation constant of the ligand for the receptor, both expressed in nM.

T1 sequence (P50406 whole entry): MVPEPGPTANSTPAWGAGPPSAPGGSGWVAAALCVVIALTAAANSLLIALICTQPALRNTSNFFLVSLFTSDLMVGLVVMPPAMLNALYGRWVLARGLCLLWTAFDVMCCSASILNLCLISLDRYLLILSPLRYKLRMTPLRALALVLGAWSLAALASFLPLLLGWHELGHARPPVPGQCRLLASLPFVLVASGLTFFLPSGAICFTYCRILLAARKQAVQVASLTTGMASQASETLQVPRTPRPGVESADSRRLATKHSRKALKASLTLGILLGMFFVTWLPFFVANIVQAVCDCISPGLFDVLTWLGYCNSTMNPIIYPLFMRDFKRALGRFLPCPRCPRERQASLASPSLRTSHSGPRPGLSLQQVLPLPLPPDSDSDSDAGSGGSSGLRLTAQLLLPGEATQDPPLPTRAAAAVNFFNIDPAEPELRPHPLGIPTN

What is called Ki is a dissociation constant, usually derived from enzyme kinetics or from competition with a known ligand. With `CN(C)CCOc1ccc2[nH]nc(S(=O)(=O)c3ccccc3)c2c1` [Example 1, [2-(3-Benzenesulfonyl-1H-indazol-5-yloxy)-ethyl]-dimethyl-amine], the Ki lay within 11 to 25 nM.

Consider `CCN(C)CCOc1ccc2[nH]nc(S(=O)(=O)c3ccccc3)c2c1` [Example 2, [2-(3-Benzenesulfonyl-1H-indazol-5-yloxy)-ethyl]-ethyl-methyl-amine], for which the Ki was more than 45 nM.

For `O=S(=O)(c1ccccc1)c1n[nH]c2ccc(OCCN3CCCCC3)cc12` [Example 3, 3-Benzenesulfonyl-5-(2-piperidin-1-yl-ethoxy)-1H-indazole], the Ki fell in the range of 26 to 35 nM.

Take `CCNCCOc1ccc2[nH]nc(S(=O)(=O)c3ccccc3)c2c1` [Example 4, [2-(3-Benzenesulfonyl-1H-indazol-5-yloxy)-ethyl]-ethyl-amine]: the Ki fell in the range of 0.01 to 10 nM.

The molecule `CCN(CC)CCOc1ccc2[nH]nc(S(=O)(=O)c3ccccc3)c2c1` [Example 5, [2-(3-Benzenesulfonyl-1H-indazol-5-yloxy)-ethyl]-diethyl-amine] gave a Ki of 36 to 45 nM.

The molecule `CC(C)NCCOc1ccc2[nH]nc(S(=O)(=O)c3ccccc3)c2c1` [Example 6, [2-(3-Benzenesulfonyl-1H-indazol-5-yloxy)-ethyl]-isopropyl-amine] came in with a Ki of 11 to 25 nM.

`CCCCNCCOc1ccc2[nH]nc(S(=O)(=O)c3ccccc3)c2c1` [Example 7, [2-(3-Benzenesulfonyl-1H-indazol-5-yloxy)-ethyl]-butyl-amine] came in with a Ki of 26 to 35 nM.

The molecule `O=S(=O)(c1ccccc1)c1n[nH]c2ccc(OCCNC3CC3)cc12` [Example 8, [2-(3-Benzenesulfonyl-1H-indazol-5-yloxy)-ethyl]-cyclopropyl-amine] displayed a Ki of 26 to 35 nM.

`O=S(=O)(c1ccccc1)c1n[nH]c2ccc(OCCNC3CCCC3)cc12` [Example 9, 3-Benzenesulfonyl-5-(2-cyclopentyl-1-yl-ethoxy)-1H-indazole] had a Ki of 11 to 25 nM.

`O=S(=O)(c1ccccc1)c1n[nH]c2ccc(OCCN3CCOCC3)cc12` [Example 10, 3-Benzenesulfonyl-5-(2-morpholin-4-yl-ethoxy)-1H-indazole] yielded a Ki of more than 45 nM.

For `O=S(=O)(c1ccccc1)c1n[nH]c2ccc(OCCN3CCCC3)cc12` [Example 11, 3-Benzenesulfonyl-5-(2-pyrrolidin-1-yl-ethoxy)-1H-indazole], the Ki fell in the range of 0.01 to 10 nM.

Take `CNCCOc1ccc2[nH]nc(S(=O)(=O)c3ccccc3)c2c1` [Example 12, [2-(3-Benzenesulfonyl-1H-indazol-5-yloxy)-ethyl]-methyl-amine]: the Ki is 11 to 25 nM.

`NCCOc1ccc2[nH]nc(S(=O)(=O)c3ccccc3)c2c1` [Example 13, 2-(3-Benzenesulfonyl-1H-indazol-5-yloxy)-ethylamine] gave a Ki of 36 to 45 nM.

`CNCCCOc1ccc2[nH]nc(S(=O)(=O)c3cccc4ccccc34)c2c1` [Example 15, Methyl-{3-[3-(naphthalene-1-sulfonyl)-1H-indazol-5-yloxy]-propyl}-amine] displayed a Ki of 0.01 to 10 nM.

Molecule `CCNCCCOc1ccc2[nH]nc(S(=O)(=O)c3cccc4ccccc34)c2c1` [Example 16, Ethyl-{3-[3-(naphthalene-1-sulfonyl)-1H-indazol-5-yloxy]-propyl}-amine] registered a Ki of 0.01 to 10 nM.

Molecule `CCN(C)CCCOc1ccc2[nH]nc(S(=O)(=O)c3cccc4ccccc34)c2c1` [Example 17, Ethyl-methyl-{3-[3-(naphthalene-1-sulfonyl)-1H-indazol-5-yloxy]-propyl}-amine] showed a Ki of 0.01 to 10 nM.

`CCN(CC)CCCOc1ccc2[nH]nc(S(=O)(=O)c3cccc4ccccc34)c2c1` [Example 18, Diethyl-{3-[3-(naphthalene-1-sulfonyl)-1H-indazol-5-yloxy]-propyl}-amine] had a Ki of 0.01 to 10 nM.

On to `CCCCNCCCOc1ccc2[nH]nc(S(=O)(=O)c3cccc4ccccc34)c2c1` [Example 19, Butyl-{3-[3-(naphthalene-1-sulfonyl)-1H-indazol-5-yloxy]-propyl}-amine], for which the inhibition constant Ki lay in the range of 0.01 to 10 nM.

With `O=S(=O)(c1cccc2ccccc12)c1n[nH]c2ccc(OCCCNC3CC3)cc12` [Example 20, Cyclopropyl-{3-[3-(naphthalene-1-sulfonyl)-1H-indazol-5-yloxy]-propyl}-amine], the Ki was in the range of 0.01 to 10 nM.

Take `O=S(=O)(c1cccc2ccccc12)c1n[nH]c2ccc(OCCCNC3CCCC3)cc12` [Example 21, Cyclopentyl-{3-[3-(naphthalene-1-sulfonyl)-1H-indazol-5-yloxy]-propyl}-amine]: the Ki lay within 0.01 to 10 nM.

The molecule `CC(C)NCCCOc1ccc2[nH]nc(S(=O)(=O)c3cccc4ccccc34)c2c1` [Example 22, Isopropyl-{3-[3-(naphthalene-1-sulfonyl)-1H-indazol-5-yloxy]-propyl}-amine] yielded a Ki of 0.01 to 10 nM.

`O=S(=O)(c1cccc2ccccc12)c1n[nH]c2ccc(OCCCN3CCCC3)cc12` [Example 23, 3-(Naphthalene-1-sulfonyl)-5-(3-pyrrolidin-1-yl-propoxy)-1H-indazole] had a Ki of 0.01 to 10 nM.

`O=S(=O)(c1cccc2ccccc12)c1n[nH]c2ccc(OCCCN3CCCCC3)cc12` [Example 24, 3-(Naphthalene-1-sulfonyl)-5-(3-piperidin-1-yl-propoxy)-1H-indazole] returned a Ki of 0.01 to 10 nM.

With `O=S(=O)(c1cccc2ccccc12)c1n[nH]c2ccc(OCCCN3CCOCC3)cc12` [Example 25, 5-(3-Morpholin-4-yl-propoxy)-3-(naphthalene-1-sulfonyl)-1H-indazole], the Ki lay in the range of 0.01 to 10 nM.

`NCCCOc1ccc2[nH]nc(S(=O)(=O)c3cccc4ccccc34)c2c1` [Example 26, 3-[3-(Naphthalene-1-sulfonyl)-1H-indazol-5-yloxy]-propylamine] had a Ki of 0.01 to 10 nM.

As to `CN(C)CCOc1ccc2[nH]nc(S(=O)(=O)c3cccc4ccccc34)c2c1` [Example 27, Dimethyl-{2-[3-(naphthalene-1-sulfonyl)-1H-indazol-5-yloxy]-ethyl}-amine], the Ki lay in the range of 0.01 to 10 nM.

`CC(C)NCCOc1ccc2[nH]nc(S(=O)(=O)c3cccc4ccccc34)c2c1` [Example 28, Isopropyl-{2-[3-(naphthalene-1-sulfonyl)-1H-indazol-5-yloxy]-ethyl}-amine]: the Ki was 0.01 to 10 nM.

`CCN(C)CCOc1ccc2[nH]nc(S(=O)(=O)c3cccc4ccccc34)c2c1` [Example 29, Ethyl-methyl-{2-[3-(naphthalene-1-sulfonyl)-1H-indazol-5-yloxy]-ethyl}-amine]: the Ki lay in the range of 0.01 to 10 nM.

In turn, `NCCOc1ccc2[nH]nc(S(=O)(=O)c3cccc4ccccc34)c2c1` [Example 30, 2-[3-(Naphthalene-1-sulfonyl)-1H-indazol-5-yloxy]-ethylamine] showed a Ki of 0.01 to 10 nM.

On to `CNCCOc1ccc2[nH]nc(S(=O)(=O)c3cccc4ccccc34)c2c1` [Example 31, Methyl-{2-[3-(naphthalene-1-sulfonyl)-1H-indazol-5-yloxy]-ethyl}-amine], for which the Ki was in the range of 0.01 to 10 nM.

`CCNCCOc1ccc2[nH]nc(S(=O)(=O)c3cccc4ccccc34)c2c1` [Example 32, Ethyl-{2-[3-(naphthalene-1-sulfonyl)-1H-indazol-5-yloxy]-ethyl}-amine] registered a Ki of 0.01 to 10 nM.

In turn, `CCN(CC)CCOc1ccc2[nH]nc(S(=O)(=O)c3cccc4ccccc34)c2c1` [Example 33, Diethyl-{2-[3-(naphthalene-1-sulfonyl)-1H-indazol-5-yloxy]-ethyl}-amine] gave a Ki of 0.01 to 10 nM.

`CCCCNCCOc1ccc2[nH]nc(S(=O)(=O)c3cccc4ccccc34)c2c1` [Example 34, Butyl-{2-[3-(naphthalene-1-sulfonyl)-1H-indazol-5-yloxy]-ethyl}-amine] returned a Ki of 0.01 to 10 nM.

In turn, `O=S(=O)(c1cccc2ccccc12)c1n[nH]c2ccc(OCCNC3CCCC3)cc12` [Example 35, Cyclopentyl-{2-[3-(naphthalene-1-sulfonyl)-1H-indazol-5-yloxy]-ethyl}-amine] yielded a Ki of 0.01 to 10 nM.

For the molecule `O=S(=O)(c1cccc2ccccc12)c1n[nH]c2ccc(OCCNC3CC3)cc12` [Example 36, Cyclopropyl-{2-[3-(naphthalene-1-sulfonyl)-1H-indazol-5-yloxy]-ethyl}-amine], the Ki fell in the range of 0.01 to 10 nM.

Turning to `O=S(=O)(c1cccc2ccccc12)c1n[nH]c2ccc(OCCN3CCCC3)cc12` [Example 37, 3-(Naphthalene-1-sulfonyl)-5-(2-pyrrolidin-1-yl-ethoxy)-1H-indazole], the Ki lay within 0.01 to 10 nM.

`O=S(=O)(c1cccc2ccccc12)c1n[nH]c2ccc(OCCN3CCCCC3)cc12` [Example 38, 3-(Naphthalene-1-sulfonyl)-5-(2-piperidin-1-yl-ethoxy)-1H-indazole] registered a Ki of 0.01 to 10 nM.

Molecule `O=S(=O)(c1cccc2ccccc12)c1n[nH]c2ccc(OCCN3CCOCC3)cc12` [Example 39, 5-(2-Morpholin-4-yl-ethoxy)-3-(naphthalene-1-sulfonyl)-1H-indazole] gave a Ki of 11 to 25 nM.
